According to patent US20100179130A1, “USE OF PIPERINE AND DERIVATIVES THEREOF FOR THE THERAPY OF NEUROLOGICAL CONDITIONS” (SYNGIS Bioscience GmbH & Co. KG, priority 2007, published 2010):

Columns and labels:
neural stem cells = assay: In vitro differentiation assay on adult neural stem cells (beta-III-tubulin promoter firefly/Renilla dual luciferase reporter); type: cell-based, rat
Excerpt: The neuroregenerative effect of the compounds according to the present invention can be assayed in vitro by measuring their stimulation of the differentiation of neural stem cells. Therefore, adult neural stem cells have to be isolated and subsequently cultivated in a suitable culture medium. After several passages in vitro the stem cells have to be co-transfected with a DNA construct coding for two discriminable reporter proteins one of them under the control of a constitutive promoter and the other under the control of a beta-III-tubulin promoter. The beta-III-tubulin promoter is induced during the process of neural stem cell differentiation; therefore the reporter protein under the control of this promoter serves as a marker for the stem cell differentiation in such an in vitro dual reporter assay (Schneider et al., J Clin Investigation 2005; 115:2083-2098). The person skilled in the art knows several suitable constitutive promoters such as the SV40-promoter, the TK-promoter, or the CMV-promoter. As discriminable reporter proteins for such a dual reporter assay one can use discriminable luciferases such as firefly luciferase and Renilla luciferase. The transfected cells have to be incubated with the test compound and with a positive and negative controls for normalization and background correction. As a positive control compound one can use retinoic acid (Guan et al., Cell Tissue Res. 2001; 305:171-176; Jacobs et al., Proc. Natl. Acad. Sci. USA 2006; 103:3902-3907), a suitable negative control is the sham treatment of the cells. The neroregenerative activity of the test compound is determined as the ratio of the signal of the beta-III-tubulin promoter controlled reporter versus the signal of the constitutively expressed reporter and is expressed as fold from the control. This assay is suitable to assess the neuroregenerative activity of piperine and derivatives thereof, but also can be used to screen for other potential neuroregenerative compounds. Preferably, such a screening can be used to test compounds which are already known to be suitable as a medicament in terms of its toxicology, bioavailability, solubility, stability etc.
Neural stem cells were isolated from the subventricular zone of 4 week-old male Wistar rats as described (Maurer et al, Proteome Sci. 2003; 1:4). Cells were cultivated in Neurobasal medium (Invitrogen) supplemented with B27 (Invitrogen), 2 mM L-glutamine, 100 units/ml penicillin, 100 units/ml streptomycin, 20 ng/ml […] (EGF), 20 ng/ml fibroblast growth factor-2 (FGF-2), and 2 μg/ml heparin. Once a week the neural stem cells were passaged and experiments were performed after 4 weeks in vitro. For DNA transfection, the cells were dissociated and plated on poly-L-ornithin/laminin-coated 96-well plates at a density of 50.000 cells/well. Cotransfection with the pGL3-p-βIII-tubulin vector (100 ng/well) and the pRL SV40 vector (100 ng/well) was carried out according to the FuGene6 Transfection protocol (Roche). The pRL SV40 vector (Promega) served as an internal control vector.
To amplify the class III β-tubulin gene promoter (fragment −450-+54), rat genomic DNA was used as a template for PCR (Dennis et al., Gene 2002; 294:269-277). The amplified fragment was inserted into the Mlu I/Xho I site of the pGL3-Basic firefly luciferase reporter vector (Promega) to generate the pGL3-p-βIII-tubulin experimental vector.
After overnight incubation, the plate was decanted and given in 8-fold replicates fresh medium containing piperine (Sigma) or vehicle. As a positive control for in vitro differentiation, stem cells were treated by adding 1 μM retinoic acid (Sigma) to the medium missing the mitogens.
After 48 hrs, the cells were harvested to prepare the cellular extracts for luciferase assay following the directions of the manufacturer (Promega). […]

[1] = cited from earlier work
[2] = test system: motoneural cell line NSC-34; assay: Anti-apoptosis assay on motoneural cell line, staurosporine induced apoptosis, Caspase-Glo 3/7; type: cell-based; details: compound 1 μM in the presence of staurosporine 0.1 μM
Method: Instead of the SH-SY5Y cells used in Example 3 and 4, this analysis was performed with motoneural cell line NSC-34. […] Incubation with staurosporine (SP; 0.1 μM) alone served as positive control and incubation with vehicle served as negative control. The degree of apoptosis relative to the staurosporine control is shown in FIG. 4 (vehicle (sham): 6%; staurosporine (SP): 100%; piperine plus staurosporine: 70%; derivative B plus staurosporine: 55%; derivative E plus staurosporine: 75%; derivative G plus staurosporine: 76%; derivative K plus staurosporine: 83%; derivative S plus staurosporine: 77%; derivative U plus staurosporine: 71%).

## O=C(/C=C/C=C/c1ccc2c(c1)OCO2)N1CCCCC1 [Piperine, (E,E)-1-[5-(1,3-benzodioxol-5-yl)-1-oxo-2,4-pentadienyl]piperidine]
Neural stem cells; 0.2 μM up to 25, 50 or 100 μM, compared with sham and 1 μM retinoic acid
  differentiation of neural stem cells to neurons, dose dependence: significantly stimulates
Neural stem cells; Rattus norvegicus, Neural stem cell, 1 μM final compound concentration, in comparison to sham treatment, read-out: Stimulation factor for differentiation of neural stem cells
  fold induction at 1 µM: 2.1
[1]; i.v. bolus of 50 mg/kg
  maximum concentration in rat brain tissue: about 4 μg/ml
[1]; rat, in vivo
  passage of the blood-brain-barrier: passes the intact blood-brain-barrier
[2]
  degree of apoptosis relative to the staurosporine control: 70%
